The values below come from ChEMBL document CHEMBL4308911, “Elucidating the mode of action for thiophene-based organic D-π-A sensitizers for use in photodynamic therapy” (Bioorg Med Chem, 2019).

Molecules are shown by their SMILES. The source made the active and inactive calls. The calls are words filed in the database; no cut-off is given here.

A short description of data set [1]: Dark toxicity against human HeLa cells assessed as reduction in cell viability after 48 hrs by MTT assay. The data set is classed as cell-based.
Another data set has as its system HeLa. In words: Phototoxicity against human HeLa cells assessed as reduction in cell viability preincubated for 1 hr followed by LED light irradiation at 8 +/- 0.5 mW/cm2 for 15 mins and measured after 48 hrs by MTT assay. The data set is classed as functional, cell-based. Particulars: light or radiation study.
The nature of data set [2]: Drug uptake mitochondria of in human HeLa cells at 10 uM after 1 hr by Mito tracker red-based confocal microscopic analysis. Type of data set: ADME.
The nature of data set [3]: Drug uptake lysosome of in human HeLa cells at 10 uM after 1 hr by Lyso tracker red-based confocal microscopic analysis. Type of data set: ADME, subcellular.
A short description of data set [4]: Aggregation property of the compound in potassium phosphate buffer assessed as particle size at 10 uM by DLS method. Type of data set: physicochemical.
A short description of data set [5]: Drug uptake in human HeLa cells at 20 uM by fluorescence assay. Type of data set: ADME, cell-based. Particulars: TDE = time-dependent effect.
Data set [6] is described as follows: Drug uptake in human HeLa cells at 20 uM at 37 degC after 1 hr by fluorescence assay. The data set is classed as ADME, cell-based.
Data set [7] in a line: Drug uptake in human HeLa cells at 20 uM at 4 degC after 1 hr by fluorescence assay. Type of data set: ADME, cell-based.
Data set [8] can be described thus: Drug uptake in human HeLa cells at 20 uM after 1 hr in presence of lipid raft inhibitor methyl-beta-cyclodextrin by fluorescence assay. The data set is classed as ADME, cell-based.
Data set [9] is described as follows: Induction of singlet oxygen production irradiated with 425 to 479 nm Nd:YAG laser light measured after 100 nanoseconds post irradiation. Type of data set: functional.
A short description of data set [10]: Drug uptake in human HeLa cells at 20 uM after 1 hr in presence of sucrose by fluorescence assay. Type of data set: ADME, cell-based.

With `COC(=O)/C(C#N)=C/c1ccc(-c2ccc(-c3ccc(N(c4ccccc4)c4ccccc4)cc3)s2)s1`, the IC50 (in general, the concentration that gives 50% inhibition) at 48 h in [1] was greater than 100 µM. Besides, the IC50 with HeLa was greater than 100 µM. Besides, the Drug uptake entry in data set [2] and in data set [3] was “Not Active” each time. In [4], the Activity entry is given as “Not Active”.

In the case of `O=Cc1ccc(-c2ccc(-c3ccc(N(c4ccccc4)c4ccccc4)cc3)s2)s1`, the IC50 at 48 h in data set [1] was 88.9 µM. Further, the IC50 with HeLa stood at 9.5 µM. Also, the Drug uptake entry in data set [2] and in data set [3] was “Not Active” in each case. Moreover, the Activity result in data set [4] is on record as “Not Active”.

Take `N#C/C(=C\c1ccc(-c2ccc(-c3ccc(N(c4ccccc4)c4ccccc4)cc3)s2)s1)C(=O)O`: in data set [1], the IC50 at 48 h came to 21.9 µM. Further, the IC50 with HeLa was found to be 0.21 µM. The Drug uptake entry in [2] is reported as “Active”; in data set [3] it was “Active”; in data set [5], “Tde”; in [6] it was “Active”; in data set [7], “Not Active”; in data set [8], “Not Active”. In addition, the Drug uptake result in data set [10] is listed as “Not Active”. The Activity in data set [4] came to 175 nm. Moreover, the result in data set [9] was Active.

For `CC(C)(C)OC(=O)/C(C#N)=C/c1ccc(-c2ccc(-c3ccc(N(c4ccccc4)c4ccccc4)cc3)s2)s1`, in data set [1], the IC50 at 48 h is greater than 100 µM. Also, in the data set on HeLa, the IC50 is greater than 100 µM. For the same compound, the Drug uptake entry in data set [2] and in data set [3] was “Not Active” in each case. Moreover, in [4], the Activity result is given as “Not Active”.

With `N#C/C(=C\c1ccc(-c2ccc(-c3ccc(N(c4ccccc4)c4ccccc4)cc3)s2)s1)C(N)=O`, in data set [1], the IC50 at 48 h is 63.1 µM. Further, the IC50 in the data set on HeLa is 8.8 µM. Also, the Drug uptake entry is “Active” in data set [2]; “Active” in data set [3]; “Active” in [6]; “Not Active” in data set [7]; “Active” in data set [8]; “Not Active” in data set [10]. In data set [4], the Activity is reported as 1175 nm.
